What was measured:
[1] = test system: E-cadherin and Vimentin in MDA-MB-231 cells; experiment: E-cadherin Luciferase activity / immunocytochemical analysis (ICC); assay type: cell-based, human
Excerpt: Thus, taking the MDA-MB-231 cell as an example, the expression results of E-cadherin and Vimentin in the cell were observed. FIG. 6 is a quantitative analysis diagram showing Luciferase activity of E-cadherin obtained from a primary antibody E-cadherin by an immunocytochemical analysis (ICC). In FIG. 6, a transformed cell strain only including an empty vector (pC3.1) is the negative control, and a cell strain including no compound II is the background control, the translational activity is defined as 100%. ICC includes embedding the tumor cells in paraffin and slicing the embedded cells into slides having a thickness of […] by a slicer, deparaffinizing, rehydrating and renaturating, picking the slide out and putting the slide into the primary antibody E-cadherin; reacting for 1.5 h and washing the slide for three times with PBS, reacting with the secondary antibody for 30 min and washing the slide for three times with PBS, staining the slide with 3′,3′-diaminobenzendine (DAB) at a ratio of 1:30, and the slide was mounted with Entellanz.

[2] = test system: MMP-9, MMP2 and uPA in breast tumor cells MDA-MB-231; experiment: Zymography enzyme activity assay; assay type: cell-based, human; conditions: MDA-MB-231, with dose increasing, FIG. 8B
Excerpt: (§1) Referring to FIG. 8B, the Zymography enzyme activity assay was used to detect effect of the compound II in different doses on enzyme activities of the MMP-9, MMP2 and uPA in the breast tumor cells MDA-MB-231. Moreover, referring to FIG. 9, the Zymography enzyme activity assay was used to detect effect of the compound I on enzyme activities of the MMP-9 and MMP2 in the human normal breast cells MCF-10A stimulated by TNF-α/TGF-β. In the Zymography enzyme activity assay, the cells (1×10^6) were planted in a 6-well plate. The next day after the cells were adhered to the wall, the cells were cultured in a serum free DMEM culture medium at an atmosphere of 5% CO2 in an incubator at 37° C. for 24 h. The compound II in different doses were added into the DMEM culture medium. In other test groups, the compound I was added, TNF-α/TGF-β were added or the compound I and TNF-α/TGF-β were added into the DMEM culture medium, wherein the concentration of compound I and TNF-α/TGF-β were 2 mM and 10 ng/ml, respectively. The cells were cultured in the culture medium for 2 h and then washed with PBS. The cell culture medium was putted into a microcentrifuge tube and centrifuged for 10 min at 1500 rpm. The supernatant was taken to perform a protein gel electrophoresis (SDS-PAGE), so as to separate the proteins. […]

[3] = test system: Rat Skin Tumor Cell (B16F1 cell strain); experiment: MTT cell viability assay; assay type: cell-based; conditions: Mus musculus, B16-F1
[4] = test system: Ovarian Tumor Cell (SKOV3 cell strain); experiment: MTT cell viability assay; assay type: cell-based; conditions: Homo sapiens, SK-OV-3
[5] = test system: MMP-2, MMP-9, uPA, uPAR, TIMP-1, TIMP-2, PAI-1 in breast tumor cells; experiment: western blotting of metastasis-related proteins; assay type: cell-based, human; conditions: 0.5, 1 and 2 μM, 24 h, with dose increasing
Description: The steps of western blotting include: washing cells with PBS twice at 4° C.; adding a lysis buffer and rubbing the cells by a rubbr policeman so as to lyse cells; putting the lysed cell solution into a 1.5 ml microcentrifuge tube and shaking for 1 min; centrifuging at 12000 rpm for 10 min and taking the supernatant; measuring concentration of the protein through a Bio-Rad protein assay kit; and storing the remained extracted protein solution at −70° C.; taking 100 μg protein solution and adding a SDS/protein loading buffer having the same volume, where the SDS/protein loading buffer has a concentration two times larger than the protein solution; boiling the mixture of the protein solution and the SDS/protein loading buffer at 100° C. for 10 min; cooling and loading the protein samples in each hole of gel; adjusting the voltage to 100 V and running the protein samples on the gel until the tracking dye in the sample buffer reaches the bottom of the gel; and subsequently transferring the protein from the gel using electrophoresis. […] Then luminescence image equipment was used, where the PVDF was placed onto a black metal plate by a plastic pincer and the face including protein was upwards, a 1:1 mixed Chemiluminesent Substrate was added into the membrane and the exposure time depends on the fluorescence intensity of antibodies. […]

[6] = test system: Liver Tumor Cell (Huh-7 cell strain); experiment: MTT cell viability assay; assay type: cell-based; conditions: Homo sapiens
[7] = test system: Skin Tumor Cell (A2058 cell strain); experiment: MTT cell viability assay; assay type: cell-based; conditions: Homo sapiens
[8] = test system: MMP-9 and MMP2 in human normal breast cells MCF-10A stimulated by TNF-α/TGF-β; experiment: Zymography enzyme activity assay; assay type: cell-based
Excerpt: as §1

In the case of `COC1=C(OC)C(=O)C(C)=C(C)C1=O` [compound II], the expression of vimentin ([1]; MDA-MB-231) is reported as “inhibit expression of vimentin”, the “expression amount of E-cadherin in the cytoplasm” value ([1]; MDA-MB-231, with dose increasing, FIG. 6) is reported as “increased” and the “enzyme activities of MMP-2, MMP-9 and uPA” value [2] is reported as “decreased”. The IC50 [3] was 12.8 µM, the IC50 [4] was 15.3 µM and the “expression amount of TIMP-1, TIMP-2 and PAI-1” value [5] was “increased”. The “expression of MMP-2, MMP-9, uPA and uPAR” value [5] was “inhibited”, the IC50 [6] was 15.1 µM and the IC50 [7] was 23.6 µM.
With `COC1=C(OC)C(=O)C(C)=CC1=O` [compound I] the “enzyme activities of MMP-2 and MMP-9” value ([8]; compound alone) was “decreased” and the “enzyme activities of MMP-2 and MMP-9” value ([8]; with TNF-α/TGF-β simultaneously) was “recovered the increase caused by TNF-α/TGF-β stimulating”.

Reference: patent publication US20150087722A1, “TREATMENT FOR BREAST TUMOR CELL METASTASIS” (China Medical University, priority 2012, published 2015)
